Source: PubChem BioAssay AID1963975 (Molecular Pharmacology Branch, DTP, NCI, 2024)
pIC50: −log10 of the molar value. Blank lines part the entries; values can stand above or below the molecule they belong to.

Tested on: 624824-186-R-J2-PDC multicell spheroids, viability
Assay: Anticancer human tumor 624824-186-R-J2-PDC patient-derived colon adenocarcinoma cell line growth inhibition [PI3K]
Settings: for viability, T/C: stronger effect = lower value
In short: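 Tumor cells were combined with HUVEC and MSCs into spheroids, then dosed with PI3K-inhibitor combinations over half-log ranges capped near clinical Cmax or 10 microM.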

[1] = curve of first compound, second compound 0.00316 µM
[2] = curve of first compound, second compound 0.01 µM
[3] = curve of first compound, second compound 0.0316 µM
[4] = curve of first compound, second compound 0.1 µM
[5] = curve of first compound, second compound 0.316 µM
[6] = curve of first compound, second compound 1 µM
[7] = second compound 0.00316 µM, first compound 0.0316 µM
[8] = second compound 0.00316 µM, first compound 0.1 µM
[9] = second compound 0.01 µM, first compound 0.0316 µM
[10] = second compound 0.01 µM, first compound 0.1 µM
[11] = second compound 0.0316 µM, first compound 0.0316 µM
[12] = second compound 0.0316 µM, first compound 0.1 µM
[13] = second compound 0.0316 µM, first compound 0.316 µM
[14] = second compound 0.0316 µM, first compound 1 µM
[15] = second compound 0.0316 µM, first compound 3.16 µM
[16] = second compound 0.0316 µM, first compound 10 µM
[17] = second compound 0.1 µM, first compound 0.0316 µM
[18] = second compound 0.1 µM, first compound 0.1 µM
[19] = second compound 0.1 µM, first compound 0.316 µM
[20] = second compound 0.1 µM, first compound 1 µM
[21] = second compound 0.1 µM, first compound 3.16 µM
[22] = second compound 0.1 µM, first compound 10 µM
[23] = second compound 0.316 µM, first compound 0.0316 µM
[24] = second compound 0.316 µM, first compound 0.1 µM
[25] = second compound 0.316 µM, first compound 0.316 µM
[26] = second compound 0.316 µM, first compound 1 µM
[27] = second compound 0.316 µM, first compound 3.16 µM
[28] = second compound 0.316 µM, first compound 10 µM
[29] = second compound 1 µM, first compound 0.0316 µM
[30] = second compound 1 µM, first compound 0.1 µM
[31] = second compound 1 µM, first compound 0.316 µM
[32] = second compound 1 µM, first compound 1 µM
[33] = second compound 1 µM, first compound 3.16 µM
[34] = second compound 1 µM, first compound 10 µM
[35] = curve of first compound, second compound 3.16 µM
[36] = curve of first compound, second compound 10 µM
[37] = second compound 3.16 µM, first compound 0.0316 µM
[38] = second compound 3.16 µM, first compound 0.1 µM
[39] = second compound 3.16 µM, first compound 0.316 µM
[40] = second compound 3.16 µM, first compound 1 µM
[41] = second compound 3.16 µM, first compound 3.16 µM
[42] = second compound 3.16 µM, first compound 10 µM
[43] = second compound 10 µM, first compound 0.0316 µM
[44] = second compound 10 µM, first compound 0.1 µM
[45] = second compound 10 µM, first compound 0.316 µM
[46] = second compound 10 µM, first compound 1 µM
[47] = second compound 10 µM, first compound 3.16 µM
[48] = second compound 10 µM, first compound 10 µM
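Also: spheroids exposed to agents for 7 days before viability read.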
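For viability, T/C in this document: 100% = DMSO vehicle treated spheroids.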

pIC50 [1]: < 5.00
pIC50 [2]: < 5.00
pIC50 [3]: < 5.00
pIC50 [4]: < 5.00
pIC50 [5]: < 5.00
pIC50 [6]: < 5.00
SMILES: CC(C)NCC(C(=O)N1CCN(c2ncnc3c2C(C)CC3O)CC1)c1ccc(Cl)cc1 (stereo unspecified) + CC(Nc1ccc2c(c1)OCCn1cc(N3C(=O)OCC3C(F)F)nc1-2)C(N)=O
viability, T/C [7]: 113%
viability, T/C [8]: 113%
viability, T/C (second compound 0.00316 µM, first compound 0.316 µM): 113%
viability, T/C (second compound 0.00316 µM, first compound 1 µM): 94.6%
viability, T/C (second compound 0.00316 µM, first compound 3.16 µM): 94.9%
viability, T/C (second compound 0.00316 µM, first compound 10 µM): 92.1%
viability, T/C [9]: 88.3%
viability, T/C [10]: 79.1%
viability, T/C (second compound 0.01 µM, first compound 0.316 µM): 72.1%
viability, T/C (second compound 0.01 µM, first compound 1 µM): 87%
viability, T/C (second compound 0.01 µM, first compound 3.16 µM): 90.7%
viability, T/C (second compound 0.01 µM, first compound 10 µM): 79.7%
viability, T/C [11]: 98%
viability, T/C [12]: 95.4%
viability, T/C [13]: 82.7%
viability, T/C [14]: 92.8%
viability, T/C [15]: 95.4%
viability, T/C [16]: 89.4%
viability, T/C [17]: 85.7%
viability, T/C [18]: 84.6%
viability, T/C [19]: 68%
viability, T/C [20]: 84.1%
viability, T/C [21]: 95.1%
viability, T/C [22]: 70.8%
viability, T/C [23]: 89.8%
viability, T/C [24]: 68.3%
viability, T/C [25]: 86%
viability, T/C [26]: 86.3%
viability, T/C [27]: 91.1%
viability, T/C [28]: 91.5%
viability, T/C [29]: 95.4%
viability, T/C [30]: 87.5%
viability, T/C [31]: 94.1%
viability, T/C [32]: 83.6%
viability, T/C [33]: 96.4%
viability, T/C [34]: 74.2%

pIC50 [1]: < 7.00
pIC50 [2]: < 7.00
pIC50 [3]: < 7.00
pIC50 [4]: < 7.00
pIC50 [5]: < 7.00
pIC50 [6]: < 7.00
SMILES: CC(=O)c1c(C)c2cnc(Nc3ccc(N4CCNCC4)cn3)nc2n(C2CCCC2)c1=O + CC(Nc1ccc2c(c1)OCCn1cc(N3C(=O)OCC3C(F)F)nc1-2)C(N)=O
viability, T/C (second compound 0.00316 µM, first compound 0.000316 µM): 105%
viability, T/C (second compound 0.00316 µM, first compound 0.001 µM): 80.9%
viability, T/C (second compound 0.00316 µM, first compound 0.00316 µM): 108%
viability, T/C (second compound 0.00316 µM, first compound 0.01 µM): 96.2%
viability, T/C [7]: 82.7%
viability, T/C [8]: 89.9%
viability, T/C (second compound 0.01 µM, first compound 0.000316 µM): 114%
viability, T/C (second compound 0.01 µM, first compound 0.001 µM): 92.7%
viability, T/C (second compound 0.01 µM, first compound 0.00316 µM): 106%
viability, T/C (second compound 0.01 µM, first compound 0.01 µM): 101%
viability, T/C [9]: 93.7%
viability, T/C [10]: 91.7%
viability, T/C (second compound 0.0316 µM, first compound 0.000316 µM): 104%
viability, T/C (second compound 0.0316 µM, first compound 0.001 µM): 94.2%
viability, T/C (second compound 0.0316 µM, first compound 0.00316 µM): 113%
viability, T/C (second compound 0.0316 µM, first compound 0.01 µM): 85.2%
viability, T/C [11]: 101%
viability, T/C [12]: 102%
viability, T/C (second compound 0.1 µM, first compound 0.000316 µM): 86.7%
viability, T/C (second compound 0.1 µM, first compound 0.001 µM): 101%
viability, T/C (second compound 0.1 µM, first compound 0.00316 µM): 91.2%
viability, T/C (second compound 0.1 µM, first compound 0.01 µM): 75.5%
viability, T/C [17]: 80.1%
viability, T/C [18]: 87.7%
viability, T/C (second compound 0.316 µM, first compound 0.000316 µM): 87.7%
viability, T/C (second compound 0.316 µM, first compound 0.001 µM): 76.6%
viability, T/C (second compound 0.316 µM, first compound 0.00316 µM): 78.8%
viability, T/C (second compound 0.316 µM, first compound 0.01 µM): 85.8%
viability, T/C [23]: 87%
viability, T/C [24]: 113%
viability, T/C (second compound 1 µM, first compound 0.000316 µM): 90%
viability, T/C (second compound 1 µM, first compound 0.001 µM): 85.4%
viability, T/C (second compound 1 µM, first compound 0.00316 µM): 86.5%
viability, T/C (second compound 1 µM, first compound 0.01 µM): 87.3%
viability, T/C [29]: 86.1%
viability, T/C [30]: 93.1%

pIC50 (curve of compound): < 7.00
SMILES: CC(=O)c1c(C)c2cnc(Nc3ccc(N4CCNCC4)cn3)nc2n(C2CCCC2)c1=O
viability, T/C (compound 0.00316 µM): 93.5% [middle of 4 runs]
viability, T/C (compound 0.1 µM): 87.5% [middle of 4 runs]

pIC50 [3]: < 5.00
pIC50 [4]: < 5.00
pIC50 [5]: < 5.00
pIC50 [6]: < 5.00
pIC50 [35]: < 5.00
pIC50 [36]: < 5.00
SMILES: CC1(C)CCC(CN2CCN(c3ccc(C(=O)NS(=O)(=O)c4ccc(NCC5CCOCC5)c([N+](=O)[O-])c4)c(Oc4cnc5[nH]ccc5c4)c3)CC2)=C(c2ccc(Cl)cc2)C1 + CC(Nc1ncnc2nc[nH]c12)c1cc2cccc(Cl)c2c(=O)n1-c1ccccc1
viability, T/C [11]: 89.4%
viability, T/C [12]: 98.6%
viability, T/C [13]: 77.3%
viability, T/C [14]: 81.7%
viability, T/C [15]: 71.6%
viability, T/C [16]: 58.4%
viability, T/C [17]: 103%
viability, T/C [18]: 90.7%
viability, T/C [19]: 91.1%
viability, T/C [20]: 67.6%
viability, T/C [21]: 67.2%
viability, T/C [22]: 58.2%
viability, T/C [23]: 88.3%
viability, T/C [24]: 90.7%
viability, T/C [25]: 68.4%
viability, T/C [26]: 79.2%
viability, T/C [27]: 63.1%
viability, T/C [28]: 79%
viability, T/C [29]: 86.3%
viability, T/C [30]: 92.3%
viability, T/C [31]: 80.2%
viability, T/C [32]: 66.5%
viability, T/C [33]: 77%
viability, T/C [34]: 80.4%
viability, T/C [37]: 88.5%
viability, T/C [38]: 106%
viability, T/C [39]: 73%
viability, T/C [40]: 78.9%
viability, T/C [41]: 86%
viability, T/C [42]: 106%
viability, T/C [43]: 103%
viability, T/C [44]: 102%
viability, T/C [45]: 108%
viability, T/C [46]: 82.2%
viability, T/C [47]: 92.2%
viability, T/C [48]: 87%

pIC50 [3]: < 5.00
pIC50 [4]: < 5.00
pIC50 [5]: < 5.00
pIC50 [6]: < 5.00
pIC50 [35]: < 5.00
pIC50 [36]: 5.93
SMILES: C[C@@H](NC(=O)c1ncnc(N)c1Cl)c1ncc(C(=O)Nc2cc(C(F)(F)F)c(Cl)cn2)s1 + Cc1nc(NC(=O)N2CCCC2C(N)=O)sc1-c1ccnc(C(C)(C)C(F)(F)F)c1
viability, T/C [11]: 103%
viability, T/C [12]: 103%
viability, T/C [13]: 91.8%
viability, T/C [14]: 84.2%
viability, T/C [15]: 73.2%
viability, T/C [16]: 82.4%
viability, T/C [17]: 80.8%
viability, T/C [18]: 84.2%
viability, T/C [19]: 85.7%
viability, T/C [20]: 76.1%
viability, T/C [21]: 84.2%
viability, T/C [22]: 85.5%
viability, T/C [23]: 106%
viability, T/C [24]: 99.8%
viability, T/C [25]: 87.7%
viability, T/C [26]: 63.5%
viability, T/C [27]: 76.2%
viability, T/C [28]: 81.1%
viability, T/C [29]: 101%
viability, T/C [30]: 96.1%
viability, T/C [31]: 102%
viability, T/C [32]: 70.7%
viability, T/C [33]: 68.3%
viability, T/C [34]: 71.5%
viability, T/C [37]: 87.4%
viability, T/C [38]: 92.6%
viability, T/C [39]: 88.8%
viability, T/C [40]: 70.7%
viability, T/C [41]: 58.1%
viability, T/C [42]: 49.7%
viability, T/C [43]: 78%
viability, T/C [44]: 80.4%
viability, T/C [45]: 63.4%
viability, T/C [46]: 54.7%
viability, T/C [47]: 38%
viability, T/C [48]: 40.1%
